Assay results: the supplement of paper PMC10307832

What was measured:
Assay in all cases: relative viability (nuclei count vs DMSO), 5 days (fraction); higher = more cells survive
BMX-IN-1 + AZD7762 = compound: C=CC(=O)Nc1cc(-n2c(=O)ccc3cnc4ccc(-c5ccc(NS(C)(=O)=O)cc5)cc4c32)ccc1C [BMX-IN-1] + NC(=O)Nc1cc(-c2cccc(F)c2)sc1C(=O)N[C@H]1CCCNC1 [AZD7762] (partner 0.2 µM)
How it was run: (§1)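 The day after seeding in 1536-well plates, lung cancer cell lines were treated by pin tool with a single drug, or with a fixed anchor-drug dose together with five library-drug doses (not always all listed) in √10 steps. After 5 days, a combined fix-and-stain solution (final 0.05% Triton X-100, 1% formaldehyde, 1 ug/ml Hoechst) was added. Nuclei counted on 4× images gave relative viability as treated counts over vehicle counts, reported as the median of duplicate plates.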

PAC-1 + Foretinib = compound: C=CCc1cccc(/C=N/NC(=O)CN2CCN(Cc3ccccc3)CC2)c1O [PAC-1] + COc1cc2c(Oc3ccc(NC(=O)C4(C(=O)Nc5ccc(F)cc5)CC4)cc3F)ccnc2cc1OCCCN1CCOCC1 [Foretinib] (partner 0.25 µM)
How it was run: as §1

PAC-1 + Dasatinib = compound: C=CCc1cccc(/C=N/NC(=O)CN2CCN(Cc3ccccc3)CC2)c1O [PAC-1] + Cc1nc(Nc2ncc(C(=O)Nc3c(C)cccc3Cl)s2)cc(N2CCN(CCO)CC2)n1 [Dasatinib] (partner 0.075 µM)
How it was run: as §1

Ibrutinib + Pemetrexed = compound: C=CC(=O)N1CCC[C@@H](n2nc(-c3ccc(Oc4ccccc4)cc3)c3c(N)ncnc32)C1 [Ibrutinib] + Nc1nc2[nH]cc(CCc3ccc(C(=O)N[C@@H](CCC(=O)O)C(=O)O)cc3)c2c(=O)[nH]1 [Pemetrexed] (partner 0.2 µM)
How it was run: as §1

## HARA
BMX-IN-1 + AZD7762; first compound 0.02 µM
  relative viability: 0.47
BMX-IN-1 + AZD7762; first compound 0.2 µM
  relative viability: 0.454
BMX-IN-1 + AZD7762; first compound 0.6325 µM
  relative viability: 0.26
BMX-IN-1 + AZD7762; first compound 2 µM
  relative viability: 0.322
PAC-1 + Foretinib; first compound 0.02 µM
  relative viability: 0.675
PAC-1 + Foretinib; first compound 0.06325 µM
  relative viability: 0.833
PAC-1 + Foretinib; first compound 0.2 µM
  relative viability: 0.863
PAC-1 + Foretinib; first compound 2 µM
  relative viability: 0.918
PAC-1 + Dasatinib; first compound 0.02 µM
  relative viability: 0.336
PAC-1 + Dasatinib; first compound 0.06325 µM
  relative viability: 0.251
PAC-1 + Dasatinib; first compound 0.2 µM
  relative viability: 0.26
PAC-1 + Dasatinib; first compound 2 µM
  relative viability: 0.26
Ibrutinib + Pemetrexed; first compound 0.005 µM
  relative viability: 0.243
Ibrutinib + Pemetrexed; first compound 0.01581 µM
  relative viability: 0.22
Ibrutinib + Pemetrexed; first compound 0.05 µM
  relative viability: 0.249
Ibrutinib + Pemetrexed; first compound 0.1581 µM
  relative viability: 0.207
Ibrutinib + Pemetrexed; first compound 0.5 µM
  relative viability: 0.242

## NCI-H1944
BMX-IN-1 + AZD7762; first compound 0.02 µM
  relative viability: 0.479
BMX-IN-1 + AZD7762; first compound 0.2 µM
  relative viability: 0.661
BMX-IN-1 + AZD7762; first compound 0.6325 µM
  relative viability: 0.52
BMX-IN-1 + AZD7762; first compound 2 µM
  relative viability: 0.578
PAC-1 + Foretinib; first compound 0.02 µM
  relative viability: 0.882
PAC-1 + Foretinib; first compound 0.06325 µM
  relative viability: 0.802
PAC-1 + Foretinib; first compound 0.2 µM
  relative viability: 0.783
PAC-1 + Foretinib; first compound 2 µM
  relative viability: 0.891
PAC-1 + Dasatinib; first compound 0.02 µM
  relative viability: 0.209
PAC-1 + Dasatinib; first compound 0.06325 µM
  relative viability: 0.222
PAC-1 + Dasatinib; first compound 0.2 µM
  relative viability: 0.204
PAC-1 + Dasatinib; first compound 2 µM
  relative viability: 0.216
Ibrutinib + Pemetrexed; first compound 0.005 µM
  relative viability: 0.624
Ibrutinib + Pemetrexed; first compound 0.01581 µM
  relative viability: 0.514
Ibrutinib + Pemetrexed; first compound 0.05 µM
  relative viability: 0.643
Ibrutinib + Pemetrexed; first compound 0.1581 µM
  relative viability: 0.518
Ibrutinib + Pemetrexed; first compound 0.5 µM
  relative viability: 0.629

## LCLC-103H
BMX-IN-1 + AZD7762; first compound 0.02 µM
  relative viability: 0.824
BMX-IN-1 + AZD7762; first compound 0.2 µM
  relative viability: 0.887
BMX-IN-1 + AZD7762; first compound 0.6325 µM
  relative viability: 0.773
BMX-IN-1 + AZD7762; first compound 2 µM
  relative viability: 0.82
PAC-1 + Foretinib; first compound 0.02 µM
  relative viability: 0.734
PAC-1 + Foretinib; first compound 0.06325 µM
  relative viability: 0.785
PAC-1 + Foretinib; first compound 0.2 µM
  relative viability: 0.713
PAC-1 + Foretinib; first compound 2 µM
  relative viability: 0.689
PAC-1 + Dasatinib; first compound 0.02 µM
  relative viability: 0.485
PAC-1 + Dasatinib; first compound 0.06325 µM
  relative viability: 0.472
PAC-1 + Dasatinib; first compound 0.2 µM
  relative viability: 0.409
PAC-1 + Dasatinib; first compound 2 µM
  relative viability: 0.487
Ibrutinib + Pemetrexed; first compound 0.005 µM
  relative viability: 0.43
Ibrutinib + Pemetrexed; first compound 0.01581 µM
  relative viability: 0.467
Ibrutinib + Pemetrexed; first compound 0.05 µM
  relative viability: 0.467
Ibrutinib + Pemetrexed; first compound 0.1581 µM
  relative viability: 0.464
Ibrutinib + Pemetrexed; first compound 0.5 µM
  relative viability: 0.544

## NCI-H1792
BMX-IN-1 + AZD7762; first compound 0.02 µM
  relative viability: 0.896
BMX-IN-1 + AZD7762; first compound 0.2 µM
  relative viability: 0.79
BMX-IN-1 + AZD7762; first compound 0.6325 µM
  relative viability: 0.866
BMX-IN-1 + AZD7762; first compound 2 µM
  relative viability: 0.885
PAC-1 + Dasatinib; first compound 0.02 µM
  relative viability: 0.996
PAC-1 + Dasatinib; first compound 0.06325 µM
  relative viability: 0.77
PAC-1 + Dasatinib; first compound 0.2 µM
  relative viability: 0.763
PAC-1 + Dasatinib; first compound 2 µM
  relative viability: 0.755
Ibrutinib + Pemetrexed; first compound 0.01581 µM
  relative viability: 0.67
Ibrutinib + Pemetrexed; first compound 0.05 µM
  relative viability: 0.96
Ibrutinib + Pemetrexed; first compound 0.1581 µM
  relative viability: 0.818
Ibrutinib + Pemetrexed; first compound 0.5 µM
  relative viability: 0.596

## Calu-6
PAC-1 + Foretinib; first compound 0.02 µM
  relative viability: 0.883
PAC-1 + Foretinib; first compound 0.06325 µM
  relative viability: 0.89
PAC-1 + Foretinib; first compound 0.2 µM
  relative viability: 0.952
PAC-1 + Foretinib; first compound 2 µM
  relative viability: 0.944

## SW 900
BMX-IN-1 + AZD7762; first compound 0.02 µM
  relative viability: 0.656
BMX-IN-1 + AZD7762; first compound 0.2 µM
  relative viability: 0.636
BMX-IN-1 + AZD7762; first compound 0.6325 µM
  relative viability: 0.735
BMX-IN-1 + AZD7762; first compound 2 µM
  relative viability: 0.666
PAC-1 + Foretinib; first compound 0.02 µM
  relative viability: 1.14
PAC-1 + Foretinib; first compound 0.06325 µM
  relative viability: 0.976
PAC-1 + Foretinib; first compound 0.2 µM
  relative viability: 0.864
PAC-1 + Foretinib; first compound 2 µM
  relative viability: 0.717
PAC-1 + Dasatinib; first compound 0.02 µM
  relative viability: 0.766
PAC-1 + Dasatinib; first compound 0.06325 µM
  relative viability: 0.467
PAC-1 + Dasatinib; first compound 0.2 µM
  relative viability: 0.435
PAC-1 + Dasatinib; first compound 2 µM
  relative viability: 0.927
Ibrutinib + Pemetrexed; first compound 0.005 µM
  relative viability: 0.456
Ibrutinib + Pemetrexed; first compound 0.01581 µM
  relative viability: 0.48
Ibrutinib + Pemetrexed; first compound 0.05 µM
  relative viability: 0.478
Ibrutinib + Pemetrexed; first compound 0.1581 µM
  relative viability: 0.482
Ibrutinib + Pemetrexed; first compound 0.5 µM
  relative viability: 0.49
